Earlier results, collected in patent US20240252580A1, “AMINO ACID HYDRATION FORMULATION AND METHOD OF USE” (The Coca-Cola Company, priority 2021, published 2024).
Peptide text beside a SMILES is read from it.

Details: for effect on sodium and water absorption from the human jejunum: perfusion technique; for dependence of sodium and water absorption on amino acid concentration: saturation not demonstrated over the range of concentrations

Row | SMILES | effect on sodium and water absorption from the human jejunum | dependence of sodium and water absorption on amino acid concentration
1 | C[C@H](NC(=O)CN)C(=O)O [Gly-Ala, glycyl-L-alanine] (H-Gly-Ala-OH) | significant stimulation | –
2 | C[C@H](N)C(=O)O [alanine] | significant stimulation | increased linearly with increasing concentration
3 | NCC(=O)NCC(=O)O [Gly-Gly, glycyl-glycine] (H-Gly-Gly-OH) | significant stimulation | –
4 | NCC(=O)O [glycine] | significant stimulation | increased linearly with increasing concentration
